Laboratory results from PubChem BioAssay AID200 (DTP/NCI, 2004).
Values joined by “and” are separate entries in the source; they are usually repeats but may differ in a detail not shown here. Equal entries are not always repeated. Toxic doses and inconclusive results are not listed. Where a SMILES comes first, the peptide text is derived from it. The star is where a group is joined. Cbz = O=C(OCc1ccccc1)*

System: B6C3F1 mice, B16 melanoma ip, median survival T/C
Assay: NCI In Vivo Anticancer Drug Screen. Data for tumor model B16 Melanoma (intraperitoneal) in B6C3F1 mice
Conditions: endpoint: median survival time, higher = longer survival
Summary of the method: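 Tumor-bearing mice received test compound; a separate group got vehicle only. Survival was then compared, with results reported as treated over control.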

[1] = dose: 25.0 mg/kg/injection, schedule: Q01DX009 (ip), vehicle: saline with Tween-80
[2] = dose: 50.0 mg/kg/injection, schedule: Q01DX009 (ip), vehicle: saline with Tween-80
[3] = dose: 100.0 mg/kg/injection, schedule: Q01DX009 (ip), vehicle: saline with Tween-80
[4] = dose: 12.5 mg/kg/injection, schedule: Q01DX009 (ip), vehicle: saline with Tween-80
[5] = dose: 200.0 mg/kg/injection, schedule: Q01DX009 (ip), vehicle: Klucel (hydroxypropylcellulose) (HPC)
[6] = dose: 6.25 mg/kg/injection, schedule: Q01DX009 (ip), vehicle: saline with Tween-80

Compound: CC1=C(O)C(=O)[C@@H]2O[C@@H]2C1=O
- T/C (dose: 0.78 mg/kg/injection, schedule: Q01DX009 (ip), vehicle: saline): 87 % of control and 92 % of control
- T/C (dose: 1.56 mg/kg/injection, schedule: Q01DX009 (ip), vehicle: saline): 91 % of control and 98 % of control
- T/C (dose: 3.12 mg/kg/injection, schedule: Q01DX009 (ip), vehicle: saline): 103 % of control
- T/C (dose: 3.13 mg/kg/injection, schedule: Q01DX009 (ip), vehicle: saline): 107 % of control
- T/C (dose: 6.25 mg/kg/injection, schedule: Q01DX009 (ip), vehicle: saline): 112 % of control and 94 % of control
- T/C (dose: 12.5 mg/kg/injection, schedule: Q01DX009 (ip), vehicle: saline): 108 % of control and 106 % of control

Compound: CC(C)(C[NH-])C[NH-].[Cl][Pt+2][Cl]
- T/C (dose: 0.25 mg/kg/injection, schedule: Q01DX009 (ip), vehicle: water): 111 % of control
- T/C (dose: 0.5 mg/kg/injection, schedule: Q01DX009 (ip), vehicle: water): 123 % of control
- T/C (dose: 2.0 mg/kg/injection, schedule: Q01DX009 (ip), vehicle: water): 175 % of control
- T/C (dose: 2.0 mg/kg/injection, schedule: Q04DX003 (ip), vehicle: water): 168 % of control
- T/C (dose: 4.0 mg/kg/injection, schedule: Q04DX003 (ip), vehicle: water): 200 % of control

Compound: Nc1ccc2cc(S(=O)(=O)O)cc(O)c2c1N=Nc1ccc(F)cc1
- T/C [1]: 95 % of control
- T/C [2]: 98 % of control
- T/C [3]: 90 % of control

Compound: CN(C)N=Nc1ccnc2ccc(Br)cc12
- T/C (dose: 3.13 mg/kg/injection, schedule: Q01DX009 (ip), vehicle: other): 109 % of control
- T/C (dose: 6.25 mg/kg/injection, schedule: Q01DX009 (ip), vehicle: other): 114 % of control
- T/C (dose: 12.5 mg/kg/injection, schedule: Q01DX009 (ip), vehicle: other): 110 % of control
- T/C (dose: 25.0 mg/kg/injection, schedule: Q01DX009 (ip), vehicle: other): 114 % of control
- T/C (dose: 50.0 mg/kg/injection, schedule: Q01DX009 (ip), vehicle: other): 115 % of control

Compound: COc1cc2c(cc1OC)-c1c3c(cc4c1[C@@H](C2)N(C)CC4)OCO3
- T/C (dose: 6.25 mg/kg/injection, schedule: Q01DX009 (ip), vehicle: distilled water + Tween-80): 98 % of control
- T/C (dose: 12.5 mg/kg/injection, schedule: Q01DX009 (ip), vehicle: distilled water + Tween-80): 89 % of control
- T/C (dose: 25.0 mg/kg/injection, schedule: Q01DX009 (ip), vehicle: distilled water + Tween-80): 104 % of control
- T/C (dose: 50.0 mg/kg/injection, schedule: Q01DX009 (ip), vehicle: distilled water + Tween-80): 92 % of control

Compound: O=C(O)C1CC(O)CN1 (configuration not stated)
- T/C (dose: 50.0 mg/kg/injection, schedule: Q01DX009 (ip), vehicle: saline): 101 % of control
- T/C (dose: 100.0 mg/kg/injection, schedule: Q01DX009 (ip), vehicle: saline): 101 % of control
- T/C (dose: 200.0 mg/kg/injection, schedule: Q01DX009 (ip), vehicle: saline): 96 % of control
- T/C (dose: 400.0 mg/kg/injection, schedule: Q01DX009 (ip), vehicle: saline): 106 % of control
- T/C (dose: 800.0 mg/kg/injection, schedule: Q01DX009 (ip), vehicle: saline): 108 % of control

Compound: O=C(NC1CCCCC1)OCc1c(COC(=O)NC2CCCCC2)c(-c2ccc(Cl)c(Cl)c2)n2c1CCC2
- T/C [4]: 190 % of control
- T/C [1]: 162 % of control and 222 % of control
- T/C [2]: 199 % of control and 235 % of control
- T/C [3]: 203 % of control and 316 % of control
- T/C (dose: 200.0 mg/kg/injection, schedule: Q01DX009 (ip), vehicle: saline with Tween-80): 181 % of control and 214 % of control
- T/C (dose: 400.0 mg/kg/injection, schedule: Q01DX009 (ip), vehicle: saline with Tween-80): 112 % of control

Compound: COc1ccc2c3c1OC1C(=O)CCC4C(C2)N(C)CCC314 (configuration not stated)
- T/C (dose: 31.0 mg/kg/injection, schedule: Q01DX009 (ip), vehicle: saline): 99 % of control

Compound: CCOC(=O)C(Cc1c[nH]c2ccccc12)NC(=O)C(Cc1ccccc1)NC(=O)C(Cc1cnc[nH]1)NC(=O)OCc1ccccc1 (stereo not drawn) (Cbz-His-Phe-Trp-OEt; configuration not given here)
- T/C [5]: 90 % of control

Compound: Cc1cc(N2C(=O)CCSC2=S)ccc1Cl
- T/C (dose: 12.5 mg/kg/injection, schedule: Q01DX009 (ip), vehicle: Klucel (hydroxypropylcellulose) (HPC)): 92 % of control and 95 % of control
- T/C (dose: 25.0 mg/kg/injection, schedule: Q01DX009 (ip), vehicle: Klucel (hydroxypropylcellulose) (HPC)): 90 % of control and 98 % of control
- T/C (dose: 50.0 mg/kg/injection, schedule: Q01DX009 (ip), vehicle: Klucel (hydroxypropylcellulose) (HPC)): 94 % of control
- T/C (dose: 100.0 mg/kg/injection, schedule: Q01DX009 (ip), vehicle: Klucel (hydroxypropylcellulose) (HPC)): 94 % of control and 98 % of control
- T/C [5]: 90 % of control and 97 % of control

Compound: Cc1cc2c(C(C)C)c(O)c(O)c(C=O)c2c(O)c1-c1c(C)cc2c(C(C)C)c(O)c(O)c(C=O)c2c1O
- T/C (dose: 0.38 mg/kg/injection, schedule: Q01DX009 (ip), vehicle: saline with Tween-80): 97 % of control
- T/C (dose: 0.75 mg/kg/injection, schedule: Q01DX009 (ip), vehicle: saline with Tween-80): 100 % of control
- T/C (dose: 1.5 mg/kg/injection, schedule: Q01DX009 (ip), vehicle: saline with Tween-80): 98 % of control
- T/C (dose: 3.0 mg/kg/injection, schedule: Q01DX009 (ip), vehicle: saline with Tween-80): 106 % of control

Compound: N=C1C=C[C@]2(O)C[C@H](Cl)CN12
- T/C (dose: 0.75 mg/kg/injection, schedule: Q01DX009 (ip), vehicle: saline): 102 % of control
- T/C (dose: 1.5 mg/kg/injection, schedule: Q01DX009 (ip), vehicle: saline): 111 % of control
- T/C (dose: 3.0 mg/kg/injection, schedule: Q01DX009 (ip), vehicle: saline): 119 % of control
- T/C (dose: 6.0 mg/kg/injection, schedule: Q01DX009 (ip), vehicle: saline): 104 % of control

Compound: CC(=O)Nc1ccc(Nc2ccc(C(=C3C=CC(=[N+](C)CCC#N)C=C3)c3ccc(N(C)CCC#N)cc3)cc2)cc1
- T/C (dose: 0.78 mg/kg/injection, schedule: Q01DX009 (ip), vehicle: saline with Tween-80): 105 % of control
- T/C (dose: 1.56 mg/kg/injection, schedule: Q01DX009 (ip), vehicle: saline with Tween-80): 108 % of control
- T/C (dose: 3.12 mg/kg/injection, schedule: Q01DX009 (ip), vehicle: saline with Tween-80): 105 % of control
- T/C [6]: 107 % of control
- T/C [4]: 120 % of control
- T/C [1]: 106 % of control

Compound: COc1cc2cc(c1Cl)N(C)C(=O)CC(OC(=O)C(C)N(C)C(=O)C(C)C)C1(C)OC1C(C)C1CC(O)(NC(=O)O1)C(OC)/C=C/C=C(C)C2OC (configuration not stated)
- T/C (dose: 2.0 micrograms/kg/injection, schedule: Q01DX009 (ip), vehicle: Klucel (hydroxypropylcellulose) (HPC)): 196 % of control
- T/C (dose: 4.0 micrograms/kg/injection, schedule: Q01DX009 (ip), vehicle: Klucel (hydroxypropylcellulose) (HPC)): 157 % of control and 165 % of control and 213 % of control
- T/C (dose: 4.0 micrograms/kg/injection, schedule: Q01DX009 (ip), vehicle: distilled water + alcohol): 103 % of control
- T/C (dose: 8.0 micrograms/kg/injection, schedule: Q01DX009 (ip), vehicle: Klucel (hydroxypropylcellulose) (HPC)): 172 % of control and 185 % of control and 245 % of control
- T/C (dose: 8.0 micrograms/kg/injection, schedule: Q01DX009 (ip), vehicle: distilled water + alcohol): 101 % of control
- T/C (dose: 16.0 micrograms/kg/injection, schedule: Q01DX009 (ip), vehicle: Klucel (hydroxypropylcellulose) (HPC)): 172 % of control and 194 % of control and 232 % of control
- T/C (dose: 16.0 micrograms/kg/injection, schedule: Q01DX009 (ip), vehicle: distilled water + alcohol): 114 % of control
- T/C (dose: 32.0 micrograms/kg/injection, schedule: Q01DX009 (ip), vehicle: Klucel (hydroxypropylcellulose) (HPC)): 183 % of control and 207 % of control
- T/C (dose: 32.0 micrograms/kg/injection, schedule: Q01DX009 (ip), vehicle: distilled water + alcohol): 119 % of control and 122 % of control
- T/C (dose: 64.0 micrograms/kg/injection, schedule: Q01DX009 (ip), vehicle: distilled water + alcohol): 105 % of control
- T/C (dose: 128.0 micrograms/kg/injection, schedule: Q01DX009 (ip), vehicle: distilled water + alcohol): 114 % of control

Compound: CNC(=O)Oc1ccc(S(=O)(=O)c2ccc(OC(=O)NC)cc2)cc1
- T/C [6]: 109 % of control
- T/C [4]: 95 % of control
- T/C [1]: 88 % of control and 98 % of control
- T/C [2]: 90 % of control and 96 % of control
- T/C [3]: 86 % of control

Compound: COC1=C(OC)C(=O)C(Sc2ccc3ccccc3c2)=CC1=O
- T/C [6]: 86 % of control and 97 % of control
- T/C [4]: 95 % of control
- T/C [1]: 96 % of control
- T/C [2]: 86 % of control

Compound: N#Cc1ccc(NN=O)nc1
- T/C (dose: 3.12 mg/kg/injection, schedule: Q01DX009 (ip), vehicle: water): 102 % of control
- T/C (dose: 3.13 mg/kg/injection, schedule: Q01DX009 (ip), vehicle: water): 119 % of control
- T/C (dose: 4.5 mg/kg/injection, schedule: Q01DX009 (ip), vehicle: saline): 117 % of control
- T/C (dose: 6.25 mg/kg/injection, schedule: Q01DX009 (ip), vehicle: water): 113 % of control and 122 % of control
- T/C (dose: 7.5 mg/kg/injection, schedule: Q01DX009 (ip), vehicle: saline): 108 % of control
- T/C (dose: 20.83 mg/kg/injection, schedule: Q01DX009 (ip), vehicle: saline): 123 % of control
- T/C (dose: 34.72 mg/kg/injection, schedule: Q01DX009 (ip), vehicle: saline): 120 % of control
